For 19 compounds, IC50 results are on record in US20260125379A1, “PRODRUG OF JAK KINASE INHIBITOR” (E-nitiate Biopharmaceuticals (Hangzhou) Co., Ltd, priority 2022, published 2026).

Counter-ions that a name gives are not always drawn.

Test [1] deals with JAK1 (Homo sapiens, UniProt P23458). As to the kind of experiment: JAK1 kinase inhibition assay (ULight-JAK-1 substrate, Eu-labeled anti-phosphotyrosine antibody). It counts as biochemical. To be noted: JAK1 10 nM, substrate 50 nM, ATP 40 μM, 2 hours at room temperature. Here is the method:
(§1) Example A: Activity Detection of JAK Kinase Small Molecule Inhibitors
(§2) Kinase reaction buffer was prepared with the following components: 50 mM HEPES, pH 7.5, 1 mM EGTA, 10 mM MgCl2, 2 mM DTT, 0.01% Tween20.
(§3) Detection buffer was prepared by diluting 10× detection buffer to IX with deionized water in a ratio of 9:1.
(§4) JAK kinase was diluted with kinase reaction buffer to 4× final concentration (JAK1: 40 nM, JAK2: 0.5 nM).
(§5) ULight™-JAK-1 (Tyr1023) substrate was diluted with kinase reaction buffer to 200 nM (final concentration: 50 nM).
(§6) ATP was diluted with kinase reaction buffer to 4× final concentration (JAK1: 160 μM, JAK2: 40 μM).
(§7) Compound to be tested was dissolved with DMSO to obtain a 10 mM storage solution, which was diluted to desired concentrations by a 3-fold gradient; for each compound 10 concentration points were set, and the final concentration of the compound to be tested ranges from 10 μM to 0.5 nM.
(§8) EDTA was dissolved with 1× detection buffer to 40 mM (EDTA final concentration: 10 mM).
(§9) Eu-labeled detection antibody (anti-phosphotyrosine (PT66)) was diluted with 1× detection buffer to 8 nM (final antibody concentration: 2 nM).
(§10) (1) To a 384-well plate, 2.5 μL 4× kinase solution and 2.5 μL 4× test compound solution with different concentrations that have been diluted were added successively, each concentration was set in duplicate, and an enzyme solution blank control and a negative control (DMSO group) were also set.
(§11) (2) The 384-well plate was shaken to mix enzyme and compound well, and then centrifuged at 1000 rpm for 1 minute, and incubated at room temperature for 60 minutes.
(§12) (3) 2.5 μL 4× substrate solution was added to the 384-well plate and centrifuged at 1000 rpm for 1 minute.
(§13) (4) 2.5 μL 4× ATP solution was added to the 384-well plate and centrifuged at 1000 rpm for 1 minute, and then enzyme reaction was initiated.
(§14) (5) For JAK1 the reaction was carried out at room temperature for 2 hours, and for JAK2 the reaction was carried out at room temperature for 1 hour.
(6) For the JAK1 reaction, the final concentrations of components are as follows: JAK1: 10 nM, substrate: 50 nM, ATP: 40 μM; and the final concentration of the tested compounds ranges from 10μ M to 0.5 nM.
(§15) (7) After the enzyme reaction was completed, 5 μL 4× enzyme reaction termination solution was added to each well of the 384-well plate, and then centrifuged at 1000 rpm for 1 minute and incubated at room temperature for 5 minutes.
(§16) (8) 5 μL 4× detection antibody solution (the final concentration of detection antibody is 2 nM) was added to each well of the 384-well plate, and then centrifuged at 1000 rpm for 1 minute and incubated at room temperature for 1 hour.
(§17) (9) At the antibody incubation was completed, signal value of each well was measured on a Envision plate reader.
(§18) (1) The percentage inhibition rate corresponding to each concentration of the tested compound was calculated on the basis that the blank control of enzyme solution corresponds to 100% and the negative control (DMSO group) corresponds to 0%.
(§19) (2) A nonlinear regression analysis of the logarithm of the concentration of the detected compound and the corresponding percentage inhibition rate was performed in GraphPad Prism software to obtain the half-inhibiting concentration (IC50) of the tested compound.

Test [2] addresses JAK2 (Homo sapiens, UniProt O60674). As to the kind of experiment: JAK2 kinase inhibition assay (ULight-JAK-1 substrate, Eu-labeled anti-phosphotyrosine antibody). It counts as biochemical. The note with it: JAK2 0.125 nM, substrate 50 nM, ATP 10 μM, 1 hour at room temperature. How it is done:
as §1, §2, §3, §4, §5, §6, §7, §8, §9, §10, §11, §12, §13, §14
For the JAK2 reaction, the final concentrations of component are as follows: JAK2: 0.125 nM, substrate: 50 nM, ATP: 10 μM; and the final concentration of the tested compound ranges from 10 μM to 0.5 nM.
as §15, §16, §17, §18, §19

JAK1, sequence (P23458 whole entry, species assumed): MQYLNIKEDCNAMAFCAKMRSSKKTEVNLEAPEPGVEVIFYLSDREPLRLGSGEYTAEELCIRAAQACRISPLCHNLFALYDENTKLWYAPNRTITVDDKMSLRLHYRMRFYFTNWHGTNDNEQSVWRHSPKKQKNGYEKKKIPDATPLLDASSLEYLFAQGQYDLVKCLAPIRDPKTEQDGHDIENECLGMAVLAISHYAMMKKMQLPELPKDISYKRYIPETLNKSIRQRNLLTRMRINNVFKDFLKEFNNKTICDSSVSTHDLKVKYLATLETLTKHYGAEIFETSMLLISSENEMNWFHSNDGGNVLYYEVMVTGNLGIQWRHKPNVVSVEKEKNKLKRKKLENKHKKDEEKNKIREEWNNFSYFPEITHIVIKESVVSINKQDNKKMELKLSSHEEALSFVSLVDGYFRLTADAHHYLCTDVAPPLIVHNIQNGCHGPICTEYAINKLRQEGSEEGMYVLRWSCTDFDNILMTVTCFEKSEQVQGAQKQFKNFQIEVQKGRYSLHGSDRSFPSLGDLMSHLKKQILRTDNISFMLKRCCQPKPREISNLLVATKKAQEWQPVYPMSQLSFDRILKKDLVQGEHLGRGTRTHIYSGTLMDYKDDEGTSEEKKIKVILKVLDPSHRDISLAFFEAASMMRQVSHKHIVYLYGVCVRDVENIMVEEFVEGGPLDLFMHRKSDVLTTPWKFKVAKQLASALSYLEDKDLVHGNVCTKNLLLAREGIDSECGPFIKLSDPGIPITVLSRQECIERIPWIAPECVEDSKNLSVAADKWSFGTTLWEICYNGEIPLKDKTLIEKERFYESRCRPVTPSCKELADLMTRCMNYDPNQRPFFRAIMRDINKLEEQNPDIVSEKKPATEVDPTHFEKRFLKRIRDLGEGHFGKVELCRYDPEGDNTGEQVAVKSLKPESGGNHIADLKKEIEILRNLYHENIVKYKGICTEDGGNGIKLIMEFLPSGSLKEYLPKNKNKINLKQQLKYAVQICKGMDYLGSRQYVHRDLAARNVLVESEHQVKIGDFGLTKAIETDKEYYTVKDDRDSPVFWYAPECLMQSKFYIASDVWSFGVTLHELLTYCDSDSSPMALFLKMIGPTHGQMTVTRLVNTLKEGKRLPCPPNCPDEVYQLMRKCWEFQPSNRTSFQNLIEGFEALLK
JAK2, sequence (O60674 whole entry, species assumed): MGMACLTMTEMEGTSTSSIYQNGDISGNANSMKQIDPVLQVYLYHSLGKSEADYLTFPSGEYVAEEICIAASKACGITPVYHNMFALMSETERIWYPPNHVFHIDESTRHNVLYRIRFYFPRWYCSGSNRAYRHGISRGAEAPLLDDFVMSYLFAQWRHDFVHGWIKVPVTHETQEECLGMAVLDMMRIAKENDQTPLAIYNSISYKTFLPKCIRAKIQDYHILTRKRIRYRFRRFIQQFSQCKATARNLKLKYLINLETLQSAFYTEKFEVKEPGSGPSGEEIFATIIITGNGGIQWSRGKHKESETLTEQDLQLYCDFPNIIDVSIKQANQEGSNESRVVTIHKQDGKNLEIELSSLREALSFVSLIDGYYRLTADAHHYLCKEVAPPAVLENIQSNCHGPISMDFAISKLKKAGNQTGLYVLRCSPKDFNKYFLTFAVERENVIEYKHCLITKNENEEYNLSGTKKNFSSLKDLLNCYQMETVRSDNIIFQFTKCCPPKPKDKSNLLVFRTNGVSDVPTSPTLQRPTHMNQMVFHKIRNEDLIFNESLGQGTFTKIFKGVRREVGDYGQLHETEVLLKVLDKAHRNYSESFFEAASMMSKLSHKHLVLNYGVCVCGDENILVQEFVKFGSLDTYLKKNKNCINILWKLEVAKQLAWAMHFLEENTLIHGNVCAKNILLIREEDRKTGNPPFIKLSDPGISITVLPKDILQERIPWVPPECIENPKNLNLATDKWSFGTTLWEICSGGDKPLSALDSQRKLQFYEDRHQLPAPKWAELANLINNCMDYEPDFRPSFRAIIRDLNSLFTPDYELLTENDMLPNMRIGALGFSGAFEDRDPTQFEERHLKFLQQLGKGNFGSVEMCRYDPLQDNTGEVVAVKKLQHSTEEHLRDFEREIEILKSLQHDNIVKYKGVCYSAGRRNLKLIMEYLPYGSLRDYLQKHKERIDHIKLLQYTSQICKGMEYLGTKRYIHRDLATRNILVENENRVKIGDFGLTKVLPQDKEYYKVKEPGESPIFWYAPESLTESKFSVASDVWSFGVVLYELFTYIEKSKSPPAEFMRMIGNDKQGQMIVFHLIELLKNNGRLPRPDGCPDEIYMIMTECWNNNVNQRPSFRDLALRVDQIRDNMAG

Turning to `CC(C)[C@@H](N)C(=O)O[C@H](C)c1nc2cnc3[nH]ccc3c2n1N1CCC(CC#N)CC1` [Compound A8, (R)-1-(1-(4-(cyanomethyl)piperidin-1-yl)-1,6-dihydroimidazo[4,5-d]pyrrolo[2,3-b]pyridin-2-yl)ethyl D-valinate], the values for the IC50 in test [1] and in test [2] were 5.86 nM and 72 nM, respectively.

Take `Nc1nc2cnc3[nH]ccc3c2n1N1CCCCC1` [Compound B1, 1-(Piperidin-1-yl)-1,6-dihydroimidazo[4,5-d]pyrrolo[2,3-b]pyridin-2-amine]: the IC50 (as a rule, the concentration that inhibits the measured activity by half) in test [1] is 2.15 nM; in test [2], 38.7 nM.

In the case of `CC(C)[C@H](N)C(=O)O[C@H](C)c1nc2cnc3[nH]ccc3c2n1N1CCC(CC#N)CC1` [Compound A9, (R)-1-(1-(4-cyanomethylpiperidin-1-yl)-1,6-dihydroimidazo[4,5-d]pyrrolo[2,3-b]pyridin-2-yl)ethyl L-valinate], the IC50 amounted to 3.05 nM in test [1] and 56.4 nM in test [2].

Consider `C[C@@H](OC(=O)CCCCO[N+](=O)[O-])c1nc2cnc3[nH]ccc3c2n1N1CCC(CC#N)CC1` [Compound A6, (R)-1-(1-(4-(cyanomethyl)piperidin-1-yl)-1,6-dihydroimidazo[4,5-d]pyrrolo[2,3-b]pyridin-2-yl)ethyl 5-(nitrooxy)valerate], for which the IC50 in test [1] came out at 31.3 nM; in test [2], 40.3 nM.

For the compound `N#CC[C@H]1CC[C@H](n2c(/N=N/c3ccc(O)c(C(=O)N[C@H](CCCCN)C(=O)O)c3)nc3cnc4[nH]ccc4c32)CC1` [Compound B9, (5-((E)-(1-((1R,4R)-4-(cyanomethyl)cyclohexyl)-1,6-dihydroimidazo[4,5-d]pyrrolo[2,3-b]pyridin-2-yl)diazenyl)-2-hydroxybenzoyl)-D-lysine], the IC50 in test [1] was 2.52 nM; in test [2] it was 6.62 nM.

As for `CSCC1(C)CCN(n2c(CO[N+](=O)[O-])nc3cnc4[nH]ccc4c32)CC1` [Compound A11, (1-(4-Methyl-4-((methylthio)methyl)piperidin-1-yl)-1,6-dihydroimidazo[4,5-d]pyrrolo[2,3-b]pyridin-2-yl)methyl nitrate], the IC50 amounted to 5.62 nM in test [1] and 4.19 nM in test [2].

Regarding `N#CC[C@H]1CC[C@H](n2c(N)nc3cnc4ccoc4c32)CC1` [Compound B5, 2-((1R,4R)-4-(2-amino-1H-furo[3,2-b]imidazo[4,5-d]pyridin-1-yl)cyclohexyl)acetonitrile], the IC50 stood at 1.33 nM in test [1] and 7.15 nM in test [2].

Consider `N#CC[C@H]1CC[C@H](n2c(/N=N/c3ccc(O)c(C(=O)N[C@H](CCCN=C(N)N)C(=O)O)c3)nc3cnc4[nH]ccc4c32)CC1` [Compound B11, (R)-2-(5-((E)-(1-((1R,4R)-4-(cyanomethyl)cyclohexyl)-1,6-dihydroimidazo[4,5-d]pyrrolo[2,3-b]pyridin-2-yl)diazenyl)-2-hydroxybenzamido)-5-((diaminomethylene)amino)valeric acid], for which the IC50 in test [1] came to 1.6 nM; in test [2] it was 3.38 nM.

Turning to `C[C@@H](OC(=O)CN(C)C)c1nc2cnc3[nH]ccc3c2n1N1CCC(CC#N)CC1` [Compound A7, (R)-1-(1-(4-(cyanomethyl)piperidin-1-yl)-1,6-dihydroimidazo[4,5-d]pyrrolo[2,3-b]pyridin-2-yl)ethyl dimethylglycinate], the IC50 in test [1] was determined as 3.85 nM; in test [2] it was 57.8 nM.

Consider `C[C@@H](OC(=O)Nc1ccccc1/N=N/c1ccc(O)c(C(=O)O)c1)c1nc2cnc3[nH]ccc3c2n1N1CCC(CC#N)CC1` [Compound A4], for which the results for the half-inhibitory concentration (IC50) in test [1] and in test [2] were 105 nM and 100 nM, respectively.

`N#CCS(=O)(=O)NCC1CCN(n2c(N)nc3cnc4[nH]ccc4c32)CC1` [Compound B2, N-((1-(2-aminoimidazo[4,5-d]pyrrolo[2,3-b]pyridin-1(6H)-yl)-piperidin-4-yl)methyl)-1-cyano methanesulfonamide]: the IC50 came out at 0.045 nM in test [1] and 0.1 nM in test [2].

Consider `N#CC[C@H]1CC[C@H](n2c(/N=N/c3ccc(O)c(C(=O)N[C@H](CC(=O)O)C(=O)O)c3)nc3cnc4[nH]ccc4c32)CC1` [Compound B8, (5-((E)-(1-((1R,4R)-4-(cyanomethyl)cyclohexyl)-1,6-dihydroimidazo[4,5-d]pyrrolo[2,3-b]pyridin-2-yl)diazenyl)-2-hydroxybenzoyl)-D-aspartic acid], for which the IC50 in test [1] came to 1.75 nM; in test [2] it was 4.26 nM.

In the case of `N#CC[C@H]1CC[C@H](n2c(/N=N/c3ccc(O)c(C(=O)N[C@H](CCC(=O)O)C(=O)O)c3)nc3cnc4[nH]ccc4c32)CC1` [Compound B10, (5-((E)-(1-((1R,4R)-4-(cyanomethyl)cyclohexyl)-1,6-dihydroimidazo[4,5-d]pyrrolo[2,3-b]pyridin-2-yl)diazenyl)-2-hydroxybenzoyl)-D-glutamic acid], the IC50 in test [1] is 1.34 nM; in test [2], 0.28 nM.

Take `COC(=O)/C=C/C(=O)OCO[C@H](C)c1nc2cnc3[nH]ccc3c2n1N1CCC(CC#N)CC1` [Compound A10, (R)-(1-(1-(4-(cyanomethyl)piperidin-1-yl)-1,6-dihydroimidazo[4,5-d]pyrrolo[2,3-b]pyridin-2-yl)ethoxy)methyl monomethyl fumarate]: the IC50 turned out to be 96.7 nM in test [1] and 21.1 nM in test [2].

Turning to `CC(=O)O[C@H](C)c1nc2cnc3[nH]ccc3c2n1N1CCC(CC#N)CC1` [Compound A5, (R)-1-(1-(4-(cyanomethyl)piperidin-1-yl)-1,6-dihydroimidazo[4,5-d]pyrrolo[2,3-b]pyridin-2-yl)ethyl acetate], the IC50 is 1.83 nM in test [1] and 4.04 nM in test [2].

As to `CSCC1(C)CCN(n2c(CCO[N+](=O)[O-])nc3cnc4[nH]ccc4c32)CC1` [Compound A12, 2-(1-(4-Methyl-4-((methylthio)methyl)piperidin-1-yl)-1,6-dihydroimidazo[4,5-d]pyrrolo[2,3-b]pyridin-2-yl)ethyl nitrate], the figures for the IC50 in test [1] and in test [2] were 38.9 nM and 37.9 nM, respectively.

In the case of `N#CC[C@H]1CC[C@H](n2c(/N=N/c3ccc(O)c(C(=O)NCCS(=O)(=O)O)c3)nc3cnc4[nH]ccc4c32)CC1` [Compound B12, 2-(5-((E)-(1-((1R,4R)-4-(cyanomethyl)cyclohexyl)-1,6-dihydroimidazo[4,5-d]pyrrolo[2,3-b]pyridin-2-yl)diazenyl)-2-hydroxybenzamido) ethan-1-sulfonic acid], the half-maximal inhibitory concentration (IC50) in test [1] amounted to 1.02 nM; in test [2], 0.47 nM.

For the compound `N#CCC1CCN(n2c(/N=N/c3ccc(O)c(C(=O)O)c3)nc3cnc4[nH]ccc4c32)CC1` [Compound B7, (E)-5-((1-(4-cyanomethylpiperidin-1-yl)-1,6-dihydroimidazo[4,5-d]pyrrolo[2,3-b]pyridin-2-yl)diazenyl)-2-hydroxybenzoic acid], the IC50 in test [1] is 1 nM; in test [2], 0.27 nM.

Consider `N#CCC1CCN(n2c(N)nc3cnc4ccsc4c32)CC1` [Compound B4, 2-(1-(2-amino-1H-imidazo[4,5-d]thieno[3,2-b]pyridin-1-yl)piperidin-4-yl)acetonitrile], for which the values for the half-inhibitory concentration (IC50) in test [1] and in test [2] were 0.47 nM and 1.74 nM, respectively.
